Results from paper PMC8387766 (The Journal of Biological Chemistry, 2021).

Experiments:
[1] = target: mouse TRPV1 Y512A mutant (Mus musculus, UniProt Q704Y3, Y512A); format: cell-based; conditions: saturating concentration for the wildtype channel; whole-cell recording
[2] = target: T1, mouse TRPV1 (wildtype) (Mus musculus, UniProt Q704Y3); conditions: WT channel; cited from earlier work
[3] = target: T1, mouse TRPV1 (wildtype); test: Whole-cell patch-clamp of wild-type TRPV1 in HEK293 cells; format: cell-based
[4] = target: mouse TRPV1 T551V mutant (Mus musculus, UniProt Q704Y3, T551V); test: cell-based; format: cell-based
[5] = target: mouse TRPV1 E571A mutant (Mus musculus, UniProt Q704Y3, E571A); test: Whole-cell patch-clamp of TRPV1 E571A mutant; format: cell-based; conditions: whole-cell recording
Chain of mouse TRPV1 E571A mutant (Q704Y3 whole entry E571A): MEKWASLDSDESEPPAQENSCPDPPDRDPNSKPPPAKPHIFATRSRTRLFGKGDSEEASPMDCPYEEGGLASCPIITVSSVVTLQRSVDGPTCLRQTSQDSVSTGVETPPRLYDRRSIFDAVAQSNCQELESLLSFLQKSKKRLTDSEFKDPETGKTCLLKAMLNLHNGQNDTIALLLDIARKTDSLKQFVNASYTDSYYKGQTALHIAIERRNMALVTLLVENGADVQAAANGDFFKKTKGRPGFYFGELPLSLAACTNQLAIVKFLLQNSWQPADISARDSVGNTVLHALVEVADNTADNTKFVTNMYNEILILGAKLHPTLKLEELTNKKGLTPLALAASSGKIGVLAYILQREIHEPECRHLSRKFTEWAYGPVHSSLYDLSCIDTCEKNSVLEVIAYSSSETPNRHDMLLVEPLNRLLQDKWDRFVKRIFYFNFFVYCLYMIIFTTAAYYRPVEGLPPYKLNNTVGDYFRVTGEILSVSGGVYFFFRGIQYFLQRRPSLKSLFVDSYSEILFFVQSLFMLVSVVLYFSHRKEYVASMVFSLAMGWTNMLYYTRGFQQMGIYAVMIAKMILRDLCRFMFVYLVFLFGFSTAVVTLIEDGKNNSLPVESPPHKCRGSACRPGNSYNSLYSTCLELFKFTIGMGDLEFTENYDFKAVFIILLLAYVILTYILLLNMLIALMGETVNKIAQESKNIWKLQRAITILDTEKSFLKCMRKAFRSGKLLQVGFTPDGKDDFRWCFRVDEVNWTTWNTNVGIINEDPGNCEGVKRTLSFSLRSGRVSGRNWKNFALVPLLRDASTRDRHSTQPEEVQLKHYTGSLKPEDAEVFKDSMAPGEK

T1 sequence (Q704Y3 whole entry): as the sequence (Q704Y3 whole entry E571A) above, with A571E counted along it
Chain of mouse TRPV1 T551V mutant (Q704Y3 whole entry T551V): as the sequence (Q704Y3 whole entry E571A) above, with T551V, A571E counted along it
Chain of mouse TRPV1 Y512A mutant (Q704Y3 whole entry Y512A): as the sequence (Q704Y3 whole entry E571A) above, with Y512A, A571E counted along it

SMILES	activation of the Y512A mutant [1]	maximum open probability (Po_max) [2] [%]	EC50 [3] [µM]	EC50 [4] [µM]	activation of the E571A mutant [5]	shift of activation to higher concentration, T551V versus wildtype [4]
NCCOB(c1ccccc1)c1ccccc1 [2-APB, 2-aminoethyl diphenylborinate]	largely activated	~100	–	–	–	–
CCCCC/C=C\C/C=C\C/C=C\C/C=C\CCCC(=O)NCCO [AEA, anandamide]	–	–	6.02 ± 1.23	4.88 ± 0.78	barely opened	–
CCCCCCCC/C=C\CCCCCCCC(=O)NCCc1ccc(O)c(O)c1 [OLDA, N-oleoyldopamine]	–	–	0.29 ± 0.08	0.54 ± 0.14	barely opened	–
COc1cc(CNC(=O)CCCC/C=C/C(C)C)ccc1O [capsaicin]	activated	–	0.146 ± 0.039	–	can still activate	about 10 fold
